Assay results as given in patent US10975068B2, “6-aminopyridin-3-yl thiazoles as modulators of RORγT” (Janssen Pharmaceutica NV, priority 2016, dated 2021).
Like-named read-outs stand apart in the source and are kept apart here.

Columns and labels:
full-length human RORγt = full-length human RORγt (Homo sapiens (Human), UniProt P51449); experiment: RORγt (full-length human) reporter assay, Conditions A; format: cell-based; details: for IC50: read-out: RORγt (FL) Reporter Assay A, IC50; for inhibition at 6 µM: read-out: RORγt (FL) Reporter Assay A, % inhibition @ 6 μM; for RORγt (FL) Reporter Assay A, % inhibition (value marked **): marked **: footnote not shown
full-length human RORγt, sequence (P51449 other isoform, or with tags, fused parts or gaps): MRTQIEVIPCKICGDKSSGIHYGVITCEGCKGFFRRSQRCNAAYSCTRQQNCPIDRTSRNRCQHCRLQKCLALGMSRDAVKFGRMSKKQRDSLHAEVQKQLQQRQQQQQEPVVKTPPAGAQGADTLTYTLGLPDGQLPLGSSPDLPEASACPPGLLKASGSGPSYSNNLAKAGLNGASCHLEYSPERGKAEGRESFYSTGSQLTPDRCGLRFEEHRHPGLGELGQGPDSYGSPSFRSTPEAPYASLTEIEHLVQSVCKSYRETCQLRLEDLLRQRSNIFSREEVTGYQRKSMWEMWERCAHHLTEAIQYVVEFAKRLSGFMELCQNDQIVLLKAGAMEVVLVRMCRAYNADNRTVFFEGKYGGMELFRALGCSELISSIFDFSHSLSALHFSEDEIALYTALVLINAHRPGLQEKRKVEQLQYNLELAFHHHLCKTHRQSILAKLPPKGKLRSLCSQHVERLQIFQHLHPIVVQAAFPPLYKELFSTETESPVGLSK
Text: RORγt (Full-Length Human) Reporter Assay:
Cells used in this assay were transiently co-transfected with three different plasmids, one expressing the GAL4-DNA binding domain (DBD)-RORγt fusion protein under control of a CMV promoter (NH2-Gal4-DBD:RORC-COOH in pCMV-BD, Stratagene #211342), and two reporter plasmids—the firefly luciferase reporter under control of a GAL4 promoter (pFR-Luc 2×GAL4) and Renilla luciferase reporter under control of CMV promoter (pRL-CMV, Promega # E2261). The full-length coding sequence was used for human RORγt, i.e., nucleotides 142-1635 of human RORγt, transcript variant 2, NCBI Accession: NM_001001523.1 (SEQ ID NO:1). HEK293T cells were plated at 35000 per well in 96-well plate in medium of MEM with 8.6% FBS. After 18-22 hours incubation, the transfection was carried out by using a PEI solution with 170.5 ng total DNA/well (50 ng pCMV-BD-ROR plus 20 ng of pFR-Luc reporter and 0.5 ng of pRL-CMV reporter plus 100 ng Carrier DNA (Clontech #630440) for each well). 4-6 hours after transfection, cells were treated with compounds for overnight in the medium with final concentration of FBS 1.1% and DMSO 0.1%. After overnight (16 to 20 hours) incubation, media were removed and cells were lysed with 20 μL 1× Passive Lysis Buffer (Promega) for 10-15 minutes. Luminescence was measured using a BMG LUMIstar OPTIMA plate reader, after addition of 75 μL/well firefly luciferase buffer, followed by 75 μL/well Renilla luciferase buffer. To calculate the effect of compounds on RORγt activity, firefly values were normalized against values of DMSO only and values of reference compound at saturating concentration, then further normalized against Renilla signals. IC50s were generated by plotting final Renilla normalized data against compound concentration and percent inhibition was calculated against DMSO control.

[1] = target: human RORγt ligand binding domain (RORγt LBD) (Homo sapiens (Human), UniProt P51449); experiment: RORγt ThermoFluor® assay (thermal shift binding); details: read-out: ThermoFluor® Assay, Kd
human RORγt ligand binding domain (RORγt LBD), sequence (P51449 other isoform, or with tags, fused parts or gaps): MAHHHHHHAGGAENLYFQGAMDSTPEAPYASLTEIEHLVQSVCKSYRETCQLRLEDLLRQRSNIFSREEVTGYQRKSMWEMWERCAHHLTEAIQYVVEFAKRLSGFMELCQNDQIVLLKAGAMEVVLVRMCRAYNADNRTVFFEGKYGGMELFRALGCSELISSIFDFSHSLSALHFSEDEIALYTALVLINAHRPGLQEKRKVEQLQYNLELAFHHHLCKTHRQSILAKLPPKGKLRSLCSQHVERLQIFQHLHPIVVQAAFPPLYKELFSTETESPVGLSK
Procedure, shortened: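 Binding was inferred from thermal stabilisation (ΔTm) of the E. coli-expressed RORγt LBD (0.065 mg/mL), monitored by 1,8-ANS (60 μM) emission at 500 nm during a 1 °C/min ramp. Buffer was Hepes 100 mM pH 7.0 with NaCl, GSH and Tween-20.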

IC50 (full-length human RORγt; Conditions A) [nM] | inhibition at 6 µM (full-length human RORγt; Conditions A) [%] | Kd [1] [nM] | IC50 (full-length human RORγt; HEK293T cells) [nM] | RORγt (FL) Reporter Assay A, % inhibition (value marked **) (full-length human RORγt; Conditions A) | Structure (SMILES)
130 | 108 | 36 | – | – | CCc1cc(NC2CCCCC2)ncc1-c1sc(C(=O)NCC(C)(C)O)nc1C(=O)N1CCC(F)CC1 [Example 70, 5-(6-(cyclohexylamino)-4-ethylpyridin-3-yl)-4-(4-fluoropiperidine-1-carbonyl)-N-(2-hydroxy-2-methylpropyl)thiazole-2-carboxamide]
79 | 96 | 30 | – | – | CC(C)(O)CNC(=O)c1nc(C(=O)N2CCC(F)CC2)c(-c2cnc(NC3CCCC(F)(F)C3)cc2C(F)(F)F)s1 (centres unmarked) [Example 23, 5-(6-((3,3-Difluorocyclohexyl)amino)-4-(trifluoromethyl)pyridin-3-yl)-4-(4-fluoropiperidine-1-carbonyl)-N-(2-hydroxy-2-methylpropyl)thiazole-2-carboxamide]
– | – | 53000 | > 6000 | – | CC(C)S(=O)(=O)Nc1cc(C(F)(F)F)c(-c2sc(C(=O)NCC(C)(C)O)nc2C(=O)N2CCC(F)CC2)cn1 [Comparator Example 3, 4-(4-Fluoropiperidine-1-carbonyl)-N-(2-hydroxy-2-methylpropyl)-5-(6-((1-methylethyl)sulfonamido)-4-(trifluoromethyl)pyridin-3-yl)thiazole-2-carboxamide, reference compound]
620 | 106 | 80 | – | – | CC(C)(O)CNC(=O)c1nc(C(=O)N2CCC(F)CC2)c(-c2cnc(NC3CCC(F)(F)CC3)cc2C(F)(F)F)s1 [Example 18, 5-(6-((4,4-Difluorocyclohexyl)amino)-4-(trifluoromethyl)pyridin-3-yl)-4-(4-fluoropiperidine-1-carbonyl)-N-(2-hydroxy-2-methylpropyl)thiazole-2-carboxamide]
71 | 108 | 8.1 | – | – | CC(C)(O)CNC(=O)c1nc(C(=O)N2CCC(F)CC2)c(-c2cnc(NC3CCCC3)cc2C(F)(F)F)s1 [Example 10, 5-(6-(Cyclopentylamino)-4-(trifluoromethyl)pyridin-3-yl)-4-(4-fluoropiperidine-1-carbonyl)-N-(2-hydroxy-2-methylpropyl)thiazole-2-carboxamide]
430 | 90.3 | 160 | – | – | Cc1c(-c2sc(C(=O)NCC(C)(C)O)nc2C(=O)N2CCC(F)CC2)cnc(NC2CCCCC2)c1C#N [Example 60, 5-(5-Cyano-6-(cyclohexylamino)-4-methylpyridin-3-yl)-4-(4-fluoropiperidine-1-carbonyl)-N-(2-hydroxy-2-methylpropyl)thiazole-2-carboxamide]
340 | 95 | 120 | – | – | CC(C)(O)CNC(=O)c1nc(C(=O)N2CCC(F)CC2)c(-c2cnc(NCCC(F)(F)F)cc2C(F)(F)F)s1 [Example 8, 4-(4-Fluoropiperidine-1-carbonyl)-N-(2-hydroxy-2-methylpropyl)-5-(4-(trifluoromethyl)-6-((3,3,3-trifluoropropyl)amino)pyridin-3-yl)thiazole-2-carboxamide]
39 | – | 7.5 | – | 105** % | CC(C)(O)CCNC(=O)c1nc(C(=O)N2CCC(F)(F)CC2)c(-c2cnc(NC3CCCCC3)cc2C(F)(F)F)s1 [Example 15, 5-(6-(Cyclohexylamino)-4-(trifluoromethyl)pyridin-3-yl)-4-(4,4-difluoropiperidine-1-carbonyl)-N-(3-hydroxy-3-methylbutyl)thiazole-2-carboxamide]
97 | 107 | 20 | – | – | CC(C)(O)CNC(=O)c1nc(C(=O)N2CCC(F)CC2)c(-c2cnc(NC3CC4(CCC4)C3)cc2C(F)(F)F)s1 [Example 24, 4-(4-Fluoropiperidine-1-carbonyl)-N-(2-hydroxy-2-methylpropyl)-5-(6-(spiro[3.3]heptan-2-ylamino)-4-(trifluoromethyl)pyridin-3-yl)thiazole-2-carboxamide]
160 | 98 | 12 | – | – | CC(C)(O)CNC(=O)c1nc(C(=O)N2CCC(F)CC2)c(-c2cnc(NC3CCCCC3)c(OC(F)F)c2)s1 [Example 62, 5-(6-(Cyclohexylamino)-5-(difluoromethoxy)pyridin-3-yl)-4-(4-fluoropiperidine-1-carbonyl)-N-(2-hydroxy-2-methylpropyl)thiazole-2-carboxamide]

The remaining lines, values behind:

Structure (SMILES) | IC50 (full-length human RORγt; Conditions A) [nM] | inhibition at 6 µM (full-length human RORγt; Conditions A) [%] | Kd [1] [nM] | IC50 (full-length human RORγt; HEK293T cells) [nM] | RORγt (FL) Reporter Assay A, % inhibition (value marked **) (full-length human RORγt; Conditions A)
CC(C)(O)CNC(=O)c1nc(C(=O)N2CCC(F)CC2)c(-c2cnc(NC3CCCCC3)c(C(F)F)c2)s1 [Example 6, 5-(6-(Cyclohexylamino)-5-(difluoromethyl)pyridin-3-yl)-4-(4-fluoropiperidine-1-carbonyl)-N-(2-hydroxy-2-methylpropyl)thiazole-2-carboxamide] | 160 | 110 | ~10 | – | –
CC(C)(O)CNC(=O)c1nc(C(=O)N2CCC(F)CC2)c(-c2cnc(NC3CCC3)cc2C(F)(F)F)s1 [Example 9, 5-(6-(Cyclobutylamino)-4-(trifluoromethyl)pyridin-3-yl)-4-(4-fluoropiperidine-1-carbonyl)-N-(2-hydroxy-2-methylpropyl)thiazole-2-carboxamide] | 330 | 104 | 77 | – | –
CC(C)(O)CNC(=O)c1nc(C(=O)N2CCC(F)CC2)c(-c2cnc(NC3CCCCC3)cc2C#N)s1 [Example 57, 5-(4-Cyano-6-(cyclohexylamino)pyridin-3-yl)-4-(4-fluoropiperidine-1-carbonyl)-N-(2-hydroxy-2-methylpropyl)thiazole-2-carboxamide] | 78 | 106 | 79 | – | –
CC(C)(O)CNC(=O)c1nc(C(=O)N2CCC(F)CC2)c(-c2cnc(NC3CCCCC3)c(C#N)c2)s1 [Example 58, 5-(5-Cyano-6-(cyclohexylamino)pyridin-3-yl)-4-(4-fluoropiperidine-1-carbonyl)-N-(2-hydroxy-2-methylpropyl)thiazole-2-carboxamide] | 770 | 93 | 170 | – | –
CC(C)(O)CNC(=O)c1nc(C(=O)N2CCC(F)CC2)c(-c2cnc(NC3CCCCC3)c(C(F)(F)F)c2)s1 [Example 1, 5-(6-(Cyclohexylamino)-5-(trifluoromethyl)pyridin-3-yl)-4-(4-fluoropiperidine-1-carbonyl)-N-(2-hydroxy-2-methylpropyl)thiazole-2-carboxamide] | 79 | – | 35 | – | 100** %
CC(C)(O)CNC(=O)c1nc(C(=O)N2CCC(F)CC2)c(-c2cnc(NC3CC4(C3)CC(F)(F)C4)cc2C(F)(F)F)s1 [Example 22, 5-(6-((6,6-Difluorospiro[3.3]heptan-2-yl)amino)-4-(trifluoromethyl)pyridin-3-yl)-4-(4-fluoropiperidine-1-carbonyl)-N-(2-hydroxy-2-methylpropyl)thiazole-2-carboxamide] | 910 | 84 | 440 | – | –
CC(C)(O)CNC(=O)c1nc(C(=O)N2CCC(F)CC2)c(-c2cnc(NC3CCCC(F)(F)C3)c(C(F)(F)F)c2)s1 (centres unmarked) [Example 13, 5-(6-((3,3-Difluorocyclohexyl)amino)-5-(trifluoromethyl)pyridin-3-yl)-4-(4-fluoropiperidine-1-carbonyl)-N-(2-hydroxy-2-methylpropyl)thiazole-2-carboxamide] | 100 | – | 37 | – | 99** %
